# From the supplement of paper PMC10307832
# Assays:
# Experiment in all cases: relative viability (nuclei count vs DMSO), 5 days (fraction); higher = more cells survive
# Temozolomide + Lapatinib = compound: Cn1nnc2c(C(N)=O)ncn2c1=O [Temozolomide] + CS(=O)(=O)CCNCc1ccc(-c2ccc3ncnc(Nc4ccc(OCc5cccc(F)c5)c(Cl)c4)c3c2)o1 [Lapatinib] (partner 2 µM)
# Summary of the method: (§1)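 Five library-drug doses in √10 steps were combined with a fixed anchor-drug dose, or a single drug was given alone, by pin tool to lung cancer cell lines in 1536-well plates the day after seeding. Nuclei were stained and counted after 5 days. Relative viability is the nuclei count in treated wells over that in vehicle wells, taken as the median of duplicate plates.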
# AZD5582 + Linsitinib = compound: C[C@@H](C(=O)N[C@@H](C1CCCCC1)C(=O)N2CCC[C@H]2C(=O)N[C@@H]3[C@@H](CC4=CC=CC=C34)OCC#CC#CCO[C@@H]5CC6=CC=CC=C6[C@@H]5NC(=O)[C@@H]7CCCN7C(=O)[C@H](C8CCCCC8)NC(=O)[C@H](C)NC)NC [AZD5582] + C[C@]1(O)C[C@@H](c2nc(-c3ccc4ccc(-c5ccccc5)nc4c3)c3c(N)nccn32)C1 [Linsitinib] (partner 1 µM)
# Summary of the method: as §1
# [1] = compound: Cn1nnc2c(C(N)=O)ncn2c1=O [Temozolomide] + CC1(C)CCC(c2ccc(Cl)cc2)=C(CN2CCN(c3ccc(C(=O)NS(=O)(=O)c4ccc(N[C@H](CCN5CCOCC5)CSc5ccccc5)c(S(=O)(=O)C(F)(F)F)c4)cc3)CC2)C1 [Navitoclax] (partner 0.5 µM)
# Summary of the method: as §1
# AZD5582 + Pictilisib = compound: C[C@@H](C(=O)N[C@@H](C1CCCCC1)C(=O)N2CCC[C@H]2C(=O)N[C@@H]3[C@@H](CC4=CC=CC=C34)OCC#CC#CCO[C@@H]5CC6=CC=CC=C6[C@@H]5NC(=O)[C@@H]7CCCN7C(=O)[C@H](C8CCCCC8)NC(=O)[C@H](C)NC)NC [AZD5582] + CS(=O)(=O)N1CCN(Cc2cc3nc(-c4cccc5[nH]ncc45)nc(N4CCOCC4)c3s2)CC1 [Pictilisib] (partner 1 µM)
# Summary of the method: as §1
cell line,measurement,setting,value
NCI-H1703,relative viability,Temozolomide + Lapatinib; first compound 0.2 µM,1.39
same,relative viability,Temozolomide + Lapatinib; first compound 0.6325 µM,1.08
same,relative viability,Temozolomide + Lapatinib; first compound 2 µM,1.59
same,relative viability,Temozolomide + Lapatinib; first compound 6.325 µM,0.972
same,relative viability,Temozolomide + Lapatinib; first compound 20 µM,1.21
same,relative viability,AZD5582 + Linsitinib; first compound 0.005 µM,0.666
same,relative viability,AZD5582 + Linsitinib; first compound 0.01581 µM,1.02
same,relative viability,AZD5582 + Linsitinib; first compound 0.05 µM,0.44
same,relative viability,[1]; first compound 0.2 µM,1.21
same,relative viability,[1]; first compound 0.6325 µM,1.2
same,relative viability,[1]; first compound 2 µM,1.28
same,relative viability,[1]; first compound 6.325 µM,0.947
same,relative viability,[1]; first compound 20 µM,1.37
same,relative viability,AZD5582 + Pictilisib; first compound 0.005 µM,0.255
same,relative viability,AZD5582 + Pictilisib; first compound 0.01581 µM,0.291
same,relative viability,AZD5582 + Pictilisib; first compound 0.05 µM,0.251
